Data set [1] has as its system A549 cells. In words: MTT anti-proliferative assay, A549. Format: cell-based, human. To be noted: mean ± SD of three experiments. The procedure: (§1) The antiproliferative activity of the synthesised derivatives of the 3-methylbenzofuran series (4a–d, 6a–c, 8a–c and 11) and the 3-(morpholinomethyl)benzofuran series (15a–c, 16a–b, 17a–b and 18) was evaluated against non-small cell lung carcinoma (NSCLC) A549 and NCI-H23 cell lines, following the procedures of the MTT assay. […] 1. Anti-proliferative action toward human […] cell lines […]
(§2) The two examined human non-small cell lung carcinoma cell lines (A549 and NCI-H23) have been obtained from American Type Culture Collection (ATCC). The cells were maintained in Dulbecco's modified Eagle's medium (DMEM) supplemented with 10% heat inactivated fetal calf serum (GIBCO), penicillin (100 U/ml) and streptomycin (100 µg/ml) at 37 °C in humidified atmosphere containing 5% CO2. […]
(§3) flask in 5 ml of culture medium. The anti-proliferative activity of the tested 3-methylbenzofurans (4a-d, 6a-c, 8a-c and 11) and 3-(morpholinomethyl)benzofurans (15a-c, 16a-b, 17a-b and 18) measured in vitro using the MTT assay. Briefly, cells were plated out in 96-well microtiter plate (0.5X10^4 cells/well) and incubated for 24 h before treatment with the tested benzofurans to allow cells to attach to the bottom of the well of the plate. Tested benzofuranswere were dissolved in DMSO at 1 mg/ml immediately before use and diluted to the appropriate volume just before addition to the cell culture. […]
(§4) added to the cells (three wells were prepared for each individual dose). Cells were incubated with […]
(§5) At the end of exposure, MTT […]
(§6) solution in PBS (5 mg/ml) was then added to all well including no cell blank and left to incubate for 90 min. The formation of formazan crystals were visually confirmed using phase contract microscopy. DMSO (100 µl/well) was added to dissolve the formazan crystals with shaking for 10 min after which the absorbance was read at 590 nm against no cell blanks on a microplate reader.
(§7) The relation between percent of surviving fraction and log drug concentration is plotted to get the survival curve for each cell line.
For orientation: Formazan colour is commonly taken as a measure of viable cells.

For data set [2], the system named is NCI-H23 cells. In words: MTT anti-proliferative assay, NCI-H23. It is filed as cell-based, human. To be noted: mean ± SD of three experiments. The procedure: as §1, §2, §3, §4, §5, §6, §7
In data set [3] the test system is NCI-H23 cells. As to the kind of experiment: Annexin V-FITC/PI apoptosis assay, NCI-H23. It is filed as cell-based, human. To be noted: NCI-H23, at IC50 concentration; control 2.09%. The procedure: The apoptotic effect of the three benzofurans (4b, 15a and 16a) was evaluated using Annexin VFITC/PI (AV/PI) dual staining assay to validate if their observed cytotoxic effect is due to non-specific necrosis or physiological apoptosis. […] Moreover, the apoptotic effects of 3-(morpholinomethyl)benzofuran derivatives 15a and 16a were evaluated in NCI-H23 cancer cell line.
(§8) Lung cancer A549 cells were treated with benzofuran 4b, whereas NCI-H23 cells were treated […]
twice with ice-cold phosphate buffered saline (PBS). Subsequently, the treated cells were collected by centrifugation, fixed in ice-cold 70% (v/v) ethanol, washed with PBS, re-suspended with 100 μg/mL RNase, stained with 40 μg/mL PI, and analyzed by flow cytometry using FACS Calibur (Becton Dickinson, BD, Franklin Lakes, NJ, USA). The cell cycle distributions were calculated using CellQuest software 5.1 (Becton Dickinson).
3. Annexin V-FITC Apoptosis Assay […]
Cells were then rinsed in binding buffer and resuspended in 150 μL of binding buffer with the addition of 1 μL of DAPI (1 μg/μL in PBS). Cells were then analyzed using the flow cytometer BD FACS Canto II and the results were interpreted with FlowJo7.6.4 software (Tree Star, Ashland, 4. VEGFR-2 Kinase Inhibitory Activity […]

Data set [4] deals with WI-38 cell line. As to the kind of experiment: Cytotoxic activity against non-tumorigenic WI-38 cell line. It is filed as cell-based, human. An excerpt: Antiproliferative agents are designed to inhibit the cellular growth of tumour cells selectively, while sparing the normal cells.
In data set [5] the test system is NCI-H23 cells. In words: Cell cycle analysis (PI flow cytometry), NCI-H23. Format: cell-based, human. To be noted: NCI-H23, 24 h at IC50 concentration. The procedure:
as §8
twice with ice-cold phosphate buffered saline (PBS). Subsequently, the treated cells were collected by centrifugation, fixed in ice-cold 70% (v/v) ethanol, washed with PBS, re-suspended with 100 μg/mL RNase, stained with 40 μg/mL PI, and analyzed by flow cytometry using FACS Calibur (Becton Dickinson, BD, Franklin Lakes, NJ, USA). The cell cycle distributions were calculated using CellQuest software 5.1 (Becton Dickinson). […]
A general note: Flow cytometry measures light scatter and fluorescence of single cells or particles in a stream.

The test system of data set [6] is M. tuberculosis ATCC 27294. As to the kind of experiment: Microplate Alamar Blue Assay, anti-tubercular activity. Format: cell-based. To be noted: Mycobacterium tuberculosis, ATCC27294, 168 h, MABA, 7 days, read-out: MIC.
The target in data set [7] is VEGFR-2 (Homo sapiens, UniProt P35968). In words: VEGFR-2 kinase inhibitory assay (VEGFR2(KDR) Kinase Assay Kit).
VEGFR-2, sequence (P35968 20-1356): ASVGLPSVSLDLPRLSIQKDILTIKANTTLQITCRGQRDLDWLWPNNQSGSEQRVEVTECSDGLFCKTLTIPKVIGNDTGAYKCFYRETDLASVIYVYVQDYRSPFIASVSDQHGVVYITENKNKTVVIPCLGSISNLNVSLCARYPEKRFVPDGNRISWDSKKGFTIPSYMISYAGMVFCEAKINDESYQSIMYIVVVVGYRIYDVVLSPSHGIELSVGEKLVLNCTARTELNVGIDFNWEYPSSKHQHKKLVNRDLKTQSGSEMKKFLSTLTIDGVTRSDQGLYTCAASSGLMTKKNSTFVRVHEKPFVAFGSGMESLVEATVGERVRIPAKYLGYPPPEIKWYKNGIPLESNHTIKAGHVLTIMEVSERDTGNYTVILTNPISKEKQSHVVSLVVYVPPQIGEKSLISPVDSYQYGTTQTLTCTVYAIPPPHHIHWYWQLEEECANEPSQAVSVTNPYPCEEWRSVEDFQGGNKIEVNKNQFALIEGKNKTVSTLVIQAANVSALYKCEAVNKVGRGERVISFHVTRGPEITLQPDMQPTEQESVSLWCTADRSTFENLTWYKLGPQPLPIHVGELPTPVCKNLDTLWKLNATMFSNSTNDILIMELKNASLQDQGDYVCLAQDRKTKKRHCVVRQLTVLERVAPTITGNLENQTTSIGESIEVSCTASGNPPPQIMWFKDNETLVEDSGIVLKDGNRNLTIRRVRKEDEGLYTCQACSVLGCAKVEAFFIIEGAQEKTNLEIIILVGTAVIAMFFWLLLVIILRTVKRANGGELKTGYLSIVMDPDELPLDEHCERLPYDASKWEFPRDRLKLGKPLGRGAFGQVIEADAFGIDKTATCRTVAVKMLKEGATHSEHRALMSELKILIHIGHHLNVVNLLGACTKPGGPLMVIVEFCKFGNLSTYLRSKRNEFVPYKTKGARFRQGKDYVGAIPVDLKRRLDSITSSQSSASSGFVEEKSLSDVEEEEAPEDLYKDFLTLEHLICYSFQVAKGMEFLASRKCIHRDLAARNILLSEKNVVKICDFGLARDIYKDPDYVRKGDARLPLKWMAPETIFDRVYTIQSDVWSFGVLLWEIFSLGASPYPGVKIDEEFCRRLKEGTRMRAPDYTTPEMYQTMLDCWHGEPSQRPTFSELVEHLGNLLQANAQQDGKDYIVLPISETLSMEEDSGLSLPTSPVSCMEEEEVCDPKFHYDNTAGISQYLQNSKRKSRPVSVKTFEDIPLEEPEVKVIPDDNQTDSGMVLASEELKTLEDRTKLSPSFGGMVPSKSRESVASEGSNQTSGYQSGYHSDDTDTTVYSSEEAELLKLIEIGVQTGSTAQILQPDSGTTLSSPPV
Source text: CA, USA), according to the manufacturer’s instructions.

We go through 18 molecules from article PMC8128204, “Development of 3-methyl/3-(morpholinomethyl)benzofuran derivatives as novel antitumor agents towards non-small cell lung cancer cells” (Journal of Enzyme Inhibition and Medicinal Chemistry, 2021).

Values after ≈ are worked out from the molar mass of the structure shown.

By melting point is commonly meant the temperature of the solid-liquid transition. As usually defined, the IC50 is the concentration needed to halve the response being measured. Read a low IC50 as greater potency. As a reminder, the MIC is the lowest concentration that inhibits growth of the organism.

`COc1cccc(NC(=S)NNC(=O)c2oc3ccccc3c2C)c1` [Compound 4a, N-(3-Methoxyphenyl)-2–(3-methylbenzofuran-2-carbonyl)hydrazine-1-carbothioamide] gave a melting point of 172 to 174 °C. The molecule also registered an IC50 in data set [1] (Homo sapiens, A549, 48 h) of 10.1 ± 0.55 µM. Also, the IC50 in data set [2] (Homo sapiens, NCI-H23, 48 h) turned out to be 34.2 ± 1.71 µM.

Take `Cc1c(C(=O)NNC(=S)Nc2cccc(C(F)(F)F)c2)oc2ccccc12` [Compound 4c, 2-(3-Methylbenzofuran-2-carbonyl)-N-(3-(trifluoromethyl)phenyl)hydrazine-1-carbothioamide]: the melting point was 170 to 172 °C. The molecule also came in with an IC50 in data set [2] (Homo sapiens, NCI-H23, 48 h) of 24.36 ± 0.12 µM.

Turning to `Cc1c(C(=O)NNC(=S)Nc2ccc(F)cc2)oc2ccccc12` [Compound 4d, N-(4-Fluorophenyl)-2-(3-methylbenzofuran-2-carbonyl)hydrazine-1-carbothioamide], the melting point is 206 to 210 °C. The midpoint of inhibition in data set [1] (Homo sapiens, A549, 48 h), the IC50, lay at 12.8 ± 0.7 µM. Besides, half-maximal inhibition in data set [2] (Homo sapiens, NCI-H23, 48 h) (IC50) was put at 67.2 ± 3.36 µM.

Take `COc1cccc(NC(=O)NNC(=O)c2oc3ccccc3c2C)c1` [Compound 6a, N-(3-Methoxyphenyl)-2-(3-methylbenzofuran-2-carbonyl)hydrazine-1-carboxamide]: the melting point lay within 162 to 164 °C. This molecule also returned an IC50 in data set [1] (Homo sapiens, A549, 48 h) of 15.1 ± 0.83 µM. In data set [2] (Homo sapiens, NCI-H23, 48 h), this molecule displayed an IC50 of 56.7 ± 2.83 µM.

`COc1ccc(NC(=O)NNC(=O)c2oc3ccccc3c2C)cc1` [Compound 6b, N-(4-Methoxyphenyl)-2-(3-methylbenzofuran-2-carbonyl)hydrazine-1-carboxamide] yielded a melting point of 236 to 240 °C. Besides, 12.5 ± 0.68 µM corresponded to half-maximal inhibition in data set [1] (Homo sapiens, A549, 48 h) (IC50). In data set [2] (Homo sapiens, NCI-H23, 48 h), this molecule gave an IC50 of 9.24 ± 0.46 µM.

On to `Cc1c(C(=O)NNC(=O)Nc2ccc(Cl)c(C(F)(F)F)c2)oc2ccccc12` [Compound 6c, N-(4-Chloro-3-(trifluoromethyl)phenyl)-2-(3-methylbenzofuran-2-carbonyl)hydrazine-1-carboxamide], for which the melting point was 240 to 242 °C. In data set [1] (Homo sapiens, A549, 48 h), this molecule gave an IC50 of 47 ± 2.57 µM. The molecule further yielded an IC50 in data set [2] (Homo sapiens, NCI-H23, 48 h) of 24.5 ± 1.23 µM.

Consider `COc1cccc(C=NNC(=O)c2oc3ccccc3c2C)c1` [Compound 8a, N'-(3-Methoxybenzylidene)-3-methylbenzofuran-2-carbohydrazide], for which the melting point lay within 242 to 244 °C. Further, in data set [1] (Homo sapiens, A549, 48 h), the IC50 turned out to be 44.1 ± 2.41 µM. The molecule also yielded an IC50 in data set [2] (Homo sapiens, NCI-H23, 48 h) of 14.9 ± 0.74 µM.

With `COc1ccc(C=NNC(=O)c2oc3ccccc3c2C)cc1` [Compound 8b, N'-(4-Methoxybenzylidene)-3-methylbenzofuran-2-carbohydrazide], the melting point is 236 to 240 °C. The molecule also came in with an IC50 in data set [1] (Homo sapiens, A549, 48 h) of 9.2 ± 0.5 µM. Also, in data set [2] (Homo sapiens, NCI-H23, 48 h), 6.15 ± 0.31 µM corresponded to half-maximal inhibition (IC50).

In turn, `COc1ccc(C(C)=NNC(=O)c2oc3ccccc3c2C)cc1` [Compound 8c, N'-(1-(4-Methoxyphenyl)ethylidene)-3-methylbenzofuran-2-carbohydrazide] displayed a melting point of 160 °C. In data set [1] (Homo sapiens, A549, 48 h), the IC50 was 16.4 ± 0.89 µM. In data set [2] (Homo sapiens, NCI-H23, 48 h), the IC50 came to 14 ± 0.7 µM.

Turning to `Cc1c(C(=O)NN=C2CCCc3ccccc32)oc2ccccc12` [Compound 11, N'-(3,4-Dihydronaphthalen-1(2H)-ylidene)-3-methylbenzofuran-2-carbohydrazide], the melting point fell in the range of 180 to 182 °C. Besides, half-maximal inhibition in data set [1] (Homo sapiens, A549, 48 h) (IC50) was put at 30.2 ± 1.65 µM. Also, the IC50 in data set [2] (Homo sapiens, NCI-H23, 48 h) turned out to be 12.1 ± 0.6 µM.

For the molecule `COc1ccc(NC(=S)NNC(=O)c2oc3ccccc3c2CN2CCOCC2)cc1` [Compound 15b, N-(4-Methoxyphenyl)-2-(3-(morpholinomethyl)benzofuran-2-carbonyl)hydrazine-1-carbothioamide], the melting point fell in the range of 198 to 200 °C. Besides, in data set [1] (Homo sapiens, A549, 48 h), 5.7 ± 0.31 µM corresponded to half-maximal inhibition (IC50). Besides, half-maximal inhibition in data set [2] (Homo sapiens, NCI-H23, 48 h) (IC50) was put at 68.9 ± 3.44 µM.

In turn, `O=C(NNC(=S)Nc1cccc(C(F)(F)F)c1)c1oc2ccccc2c1CN1CCOCC1` [Compound 15c, 2-(3-(Morpholinomethyl)benzofuran-2-carbonyl)-N-(3-(trifluoromethyl)phenyl)hydrazine-1-carbothioamide] registered a melting point of 210 to 212 °C. The IC50 in data set [1] (Homo sapiens, A549, 48 h) was determined as 6.3 ± 0.34 µM. The molecule further displayed an IC50 in data set [2] (48 h) of 2.22 ± 0.11 µM. For the same molecule, the 50% inhibitory concentration (IC50) in data set [2] (Homo sapiens, NCI-H23, 48 h) was determined as 2.21 µM.

On to `COc1cccc(NC(=O)NNC(=O)c2oc3ccccc3c2CN2CCOCC2)c1` [Compound 16a, N-(3-Methoxyphenyl)-2-(3-(morpholinomethyl)benzofuran-2-carbonyl)hydrazine-1-carboxamide], for which the total apoptosis in data set [3] was found to be 36.81%. This molecule also came in with a Mean tumour selectivity in data set [4] (S.I. WI-38/A549 and NCI-H23) of 12.9. The IC50 in data set [4] (non-tumorigenic human lung WI-38 cell line) came out at 12.9 ± 0.78 µM; in data set [1] (48 h) it was 1.5 ± 0.08 µM; in data set [1] (Homo sapiens, A549, 48 h), 1.52 µM; in data set [7], 0.0454 ± 0.0027 µM; in data set [2] (Homo sapiens, NCI-H23, 48 h) it was 0.49 ± 0.02 µM. The “S phase, fold vs control” value in data set [5] (attenuated) amounted to 0.51 fold. Further, in data set [5] (augmentation), the “G2/M phase cell population, fold vs control” value was determined as 6.90 fold. Moreover, the “sub-G1 phase cell population, fold vs control” value in data set [5] (augmentation) is given as 12.54 fold. For the same molecule, in data set [5] (reduced), the “G0–G1 phase, fold vs control” value came to 0.47 fold. Besides, the MIC in data set [6] worked out at 125 µg/mL (≈ 294 µM).

In turn, `COc1ccc(NC(=O)NNC(=O)c2oc3ccccc3c2CN2CCOCC2)cc1` [Compound 16b, N-(4-Methoxyphenyl)-2-(3-(morpholinomethyl)benzofuran-2-carbonyl)hydrazine-1-carboxamide] gave a melting point of 242 to 244 °C. The molecule also returned an IC50 in data set [1] (Homo sapiens, A549, 48 h) of 18.9 ± 1.03 µM. The molecule further returned a 50% inhibitory concentration (IC50) in data set [2] (Homo sapiens, NCI-H23, 48 h) of 5.09 ± 0.25 µM.

In turn, `O=C(NN=Cc1ccccc1)c1oc2ccccc2c1CN1CCOCC1` [Compound 17a, N'-Benzylidene-3-(morpholinomethyl)benzofuran-2-carbohydrazide] returned a melting point of 174 °C. In data set [1] (Homo sapiens, A549, 48 h), this molecule yielded an IC50 of 6.01 ± 0.03 µM. The same molecule showed an IC50 in data set [2] (Homo sapiens, NCI-H23, 48 h) of 23 ± 1.15 µM.

Molecule `COc1ccc(C=NNC(=O)c2oc3ccccc3c2CN2CCOCC2)cc1` [Compound 17b, N'-(4-Methoxybenzylidene)-3-(morpholinomethyl)benzofuran-2-carbohydrazide] yielded a melting point of 200 °C. The same molecule came in with an IC50 in data set [1] (Homo sapiens, A549, 48 h) of 10.8 ± 0.59 µM. In data set [2] (Homo sapiens, NCI-H23, 48 h), this molecule displayed an IC50 of 3.04 ± 0.15 µM.

The molecule `O=C(NN=C1CCCc2ccccc21)c1oc2ccccc2c1CN1CCOCC1` [Compound 18, N'-(3,4-Dihydronaphthalen-1(2H)-ylidene)-3-(morpholinomethyl)benzofuran-2-carbohydrazide] displayed a melting point of 200 °C. The same molecule registered an IC50 in data set [1] (Homo sapiens, A549, 48 h) of 3.7 ± 0.2 µM. In data set [2] (Homo sapiens, NCI-H23, 48 h), this molecule showed an IC50 of 29.8 ± 1.49 µM.

For the molecule `NNC(=O)c1ccncc1` [INH, Isoniazid, reference compound], the MIC in data set [6] is 0.24 µg/mL (≈ 1.75 µM).
